How the values were obtained:
[1] = system: Rattus norvegicus; test: Antiinflammatory activity in Wistar rat assessed as inhibition of carrageenan-induced hind paw edema at 100 mg/kg, po administered as gum arabic suspension 30 mins prior to carrageenin injection measured 3 hrs post-carrageenin injection; type: functional
[2] = system: Mus musculus; test: Hypnotic activity in ip dosed ddN mouse assessed as loss of righting reflex administered as gum arabic suspension measured within 60 mins; type: functional
[3] = Acute toxicity in po dosed mouse; type: organism-based; details: in vivo

Structure (SMILES) | inhibition in vivo at 100 mg/kg [1] [%] | HD50 [2] [mg/kg] | LD50 [3] [mg/kg]
CCCCOc1cc(C(=O)N2CCN(CCOC(=O)CC)CC2)nn1-c1ccccc1 | 0 |  | 
COc1cc(C(=O)N(C)C)nn1-c1ccccc1 | 47.5 | 90 | 385
COc1cc(C(=O)N2CCN(C)CC2)nn1-c1ccccc1 | 56.8 |  | 
COc1cc(C(=O)N2CCN(CCO)CC2)nn1-c1ccccc1 | 10.3 |  | 
CCCCNC(=O)c1cc(OCCCC)n(-c2ccccc2)n1 | 43.3 | 70 | 370
COc1cc(C(=O)N(C)c2ccc(C)cc2)nn1-c1ccccc1 | 22.3 |  | 
CCCCOc1cc(C(=O)N2CCN(C(=O)c3cc(OCCCC)n(-c4ccccc4)n3)CC2)nn1-c1ccccc1 | 0 |  | 
CCCOc1cc(C(=O)N(C)C)nn1-c1ccccc1 | 26.2 | 27 | 320
CCCCOc1cc(C(=O)NCCO)nn1-c1ccccc1 | 61.2 |  | 
CC(C)Oc1cc(C(=O)N(C)C)nn1-c1ccccc1 | 43.9 | 49 | 525
CCCCOc1cc(C(=O)N(C)CCN(CC)CC)nn1-c1ccccc1 | 29.5 |  | 
CCCCOc1cc(C(=O)N2CCOCC2)nn1-c1ccccc1 | 32.9 |  | 
CNC(=O)c1cc(OC)n(-c2ccccc2)n1 | 57.9 |  | 
CCCCOc1cc(C(=O)NCC)nn1-c1ccccc1 | 0 | 44 | 400
CCCCOc1cc(C(=O)NCCN(CC)CC)nn1-c1ccccc1 | 23.6 |  | 
CCCCOc1cc(C(=O)NCCC)nn1-c1ccccc1 | 51.2 | 39 | 650
CCCCOc1cc(C(=O)Nc2ccccc2C(=O)O)nn1-c1ccccc1 | 0 |  | 
CCCCOc1cc(C(=O)N2CCN(CCOC(=O)c3ccccc3)CC2)nn1-c1ccccc1 | 5.9 |  | 
CCCCOc1cc(C(=O)N2CCCC2)nn1-c1ccccc1 | 17.6 |  | 
CC(C)CCOc1cc(C(=O)N(C)C)nn1-c1ccccc1 | 25.3 | 47 | 350
CCOc1cc(C(=O)N2CCOCC2)nn1-c1ccccc1 | 35.4 |  | 
CCCCOc1cc(C(=O)N2CCN(C)CC2)nn1-c1ccccc1 | 32.3 |  | 
CCCCOc1cc(C(=O)NCCCN(C)C)nn1-c1ccccc1 | 29.8 |  | 
COc1cc(C(=O)Nc2ccccc2C(=O)O)nn1-c1ccccc1 | 24.1 |  | 

Structure (SMILES) | inhibition in vivo at 100 mg/kg [1] [%] | HD50 [2] [mg/kg] | LD50 [3] [mg/kg]
CCCCCOc1cc(C(=O)N(C)C)nn1-c1ccccc1 | 20 | 63 | 420
Cc1c(N(C)C)c(=O)n(-c2ccccc2)n1C [AMINOPYRINE] | 66 |  | 
CCCCOc1cc(C(=O)NC(C)C)nn1-c1ccccc1 | 15.8 |  | 
CCCCOc1cc(C(N)=O)nn1-c1ccccc1 | 26.5 | 94 | 360
CN1C(=O)NC(=O)C(C)(C2=CCCCC2)C1=O (stereo not drawn) [HEXOBARBITAL] |  | 91 | 745
CCCCC1C(=O)N(c2ccccc2)N(c2ccccc2)C1=O [PHENYLBUTAZONE] | 54.5 |  | 
COc1cc(C(=O)N2CCCCC2)nn1-c1ccccc1 | 28.2 |  | 
CCCCNC(=O)c1cc(OC)n(-c2ccccc2)n1 | 20.6 |  | 
CCCCOc1cc(C(=O)N(C)CCN(C)C)nn1-c1ccccc1 | 28.2 |  | 
C=CCNC(=O)c1cc(OCCCC)n(-c2ccccc2)n1 | 4.4 |  | 
CCCCOc1cc(C(=O)N(CC)CC)nn1-c1ccccc1 | 44.1 |  | 
CCCCOc1cc(C(=O)NC)nn1-c1ccccc1 | 65 | 48 | 325
CCCCOc1cc(C(=O)N2CCCCC2)nn1-c1ccccc1 | 15.6 |  | 
COc1cc(C(=O)Nc2cccc(C(F)(F)F)c2)nn1-c1ccccc1 | 20.9 |  | 
CCCOc1cc(C(=O)N2CCOCC2)nn1-c1ccccc1 | 23.5 |  | 
CCOc1cc(C(=O)N(C)C)nn1-c1ccccc1 | 65.8 | 26 | 330
COc1cc(C(=O)NC(C)C)nn1-c1ccccc1 | 24.8 |  | 
COc1cc(C(=O)N2CCOCC2)nn1-c1ccccc1 | 73.8 |  | 
CCCCOc1cc(C(=O)N2CCN(CCO)CC2)nn1-c1ccccc1 | 41.3 |  | 
CCN(CC)CCNC(=O)c1cc(OC)n(-c2ccccc2)n1 | 54.1 |  | 
CCCCOc1cc(C(=O)N2CCN(CCOC(C)=O)CC2)nn1-c1ccccc1 | 43.9 |  | 
COc1cc(C(=O)N2CCCC2)nn1-c1ccccc1 | 29.2 |  | 
COc1cc(C(N)=O)nn1-c1ccccc1 | 34.3 |  | 
CCCCOc1cc(C(=O)N(C)C)nn1-c1ccccc1 | 18.7 | 33 | 460
